In patent US11873291B2, “Quinoline cGAS antagonist compounds” (ImmuneSensor Therapeutics, Inc., priority 2020, dated 2024):
Like-named read-outs stand apart in the source and are kept apart here.

Target: T1, recombinant human cGAS (aa147-522) (Homo sapiens, UniProt Q8N884)
T1 construct: recombinant human cGAS (aa147-522); His6-SUMO (cleaved yes); made in house; host or cells: E. coli BL21/pLys
Assay: In vitro inhibition assay of cGAS activity (ATP consumption, KinaseGlo Max)
Assay type: biochemical
Outline: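 IC50 came from plotting % ATP consumption against log compound concentration, with leftover ATP detected by KinaseGlo Max chemiluminescence. Reactions ran 20 min at 37 °C with 1.5 μg/mL human cGAS (aa147-522), 6.6 μM ATP, 0.1 mM GTP and 0.01 mg/mL DNA at pH 7.5.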

[1] = Table 2, read-out: cGAS Inhibition Results IC50
[2] = Table 3, read-out: cGAS Inhibition Results IC50

T1 sequence (Q8N884 147-522): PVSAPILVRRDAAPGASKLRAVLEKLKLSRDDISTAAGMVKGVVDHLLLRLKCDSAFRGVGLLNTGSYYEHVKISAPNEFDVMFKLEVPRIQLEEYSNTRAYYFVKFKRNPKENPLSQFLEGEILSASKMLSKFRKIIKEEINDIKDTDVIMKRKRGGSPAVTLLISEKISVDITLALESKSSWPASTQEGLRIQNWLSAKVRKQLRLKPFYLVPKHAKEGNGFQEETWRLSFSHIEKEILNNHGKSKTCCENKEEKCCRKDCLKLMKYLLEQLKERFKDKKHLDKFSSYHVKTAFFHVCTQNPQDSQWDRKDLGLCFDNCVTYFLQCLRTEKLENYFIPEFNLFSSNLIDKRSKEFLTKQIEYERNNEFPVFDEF

IC50 [1] [nM] | IC50 [2] [nM] | Compound
< 2000 | – | O=C(O)c1ccccc1S(=O)(=O)NC[C@@H]1CCCN1c1cc(-n2ccnc2)c2ccc(Cl)c(Cl)c2n1 [I-391]
2000 to 30000 | – | O=C(O)[C@@H]1CCCN(c2cc(-n3ccnc3)c3ccc(Cl)cc3n2)C1 [I-357]
– | < 2000 | O=C(O)Cc1csc(CNc2cc(-n3ccnc3)c3ccc(Cl)c(Cl)c3n2)n1 [I-881]
2000 to 30000 | – | Clc1ccc2c(-c3cn[nH]c3)cc(NCCN3CCOCC3)nc2c1Cl [I-213]
> 30000 | – | C[C@H](Nc1cc(-c2cn[nH]c2)c2ccc(Cl)c(Cl)c2n1)C(=O)O [I-181]
2000 to 30000 | – | CS(=O)(=O)NC1CCCN(c2cc(-n3ccnc3)c3ccc(Cl)cc3n2)C1 (centres unmarked) [I-105, N-(1-(7-chloro-4-(1H-imidazol-1-yl)quinolin-2-yl)piperidin-3-yl)methanesulfonamide]
2000 to 30000 | – | O=C(O)c1cc(-c2cc(-n3ccnc3)c3ccc(Cl)cc3n2)cnc1O [I-57, 5-(7-chloro-4-(1H-imidazol-1-yl)quinolin-2-yl)-2-hydroxynicotinic acid]
– | 2000 to 30000 | COC(=O)[C@@H]1C[C@H](OCCC(=O)O)CN1c1cc(-n2ccnc2)c2ccc(Cl)c(Cl)c2n1 [I-871]
< 2000 | – | CS(=O)(=O)CCC(Nc1cc(-n2ccnc2)c2ccc(Cl)c(Cl)c2n1)C(=O)O (centres unmarked) [I-170, 2-((7,8-Dichloro-4-(1H-imidazol-1-yl)quinolin-2-yl)amino)-4-(methylsulfonyl)butanoic acid]
– | < 2000 | O=C(O)[C@@H]1CC(F)(F)CN1c1cc(-n2ccnc2)c2ccc(Cl)c(Cl)c2n1 [I-520]
– | 2000 to 30000 | O=C(O)CNC(=O)O[C@H]1C[C@@H](C(=O)O)N(c2cc(-n3ccnc3)c3ccc(Cl)c(Cl)c3c2)C1 [I-570, (2S,4S)-4-(((carboxymethyl)carbamoyl)oxy)-1-(7,8-dichloro-4-(1H-imidazol-1-yl)naphthalen-2-yl)pyrrolidine-2-carboxylic acid]
– | < 2000 | CN(CCN(CC(=O)O)S(C)(=O)=O)c1cc(-n2ccnc2)c2ccc(Cl)c(Cl)c2n1 [I-635, N-(2-((7,8-dichloro-4-(1H-imidazol-1-yl)quinolin-2-yl)(methyl)amino)ethyl)-N-(methylsulfonyl)glycine]
2000 to 30000 | – | O=C(O)[C@@H]1CCN1c1cc(-c2cn[nH]c2)c2ccc(Cl)c(Cl)c2n1 [I-352]
< 2000 | – | O=C(O)C[C@@H]1CCCN1c1cc(-c2cn[nH]c2)c2ccc(Cl)c(Cl)c2n1 [I-444]
> 30000 | – | Cc1cc(NC2CCCCC2C(=O)O)c2ccc(Cl)c(Cl)c2n1 (centres unmarked) [I-316]
> 30000 | – | O=C(O)c1ccccc1-c1cc(-n2ccnc2)c2ccc(Cl)cc2n1 [I-13]
– | 2000 to 30000 | COC(=O)C1CCCN(C(=O)C[C@@H]2CCCN2c2cc(-n3ccnc3)c3ccc(Cl)c(Cl)c3n2)C1 (some centres unmarked) [I-535]
– | > 30000 | O=C(C[C@@H]1CCCN1c1cc(-n2ccnc2)c2ccc(Cl)c(Cl)c2n1)N[C@@H](C(=O)O)c1ccccc1 [I-528]
2000 to 30000 | – | COc1c(Br)ccc2c(-n3ccnc3)cc(-c3ccccc3)nc12 [I-54, 7-bromo-4-(1H-imidazol-1-yl)-8-methoxy-2-phenylquinoline]
– | 2000 to 30000 | O=C(O)C12CC(CN1c1cc(-n3ccnc3)c3ccc(Cl)c(Cl)c3n1)C2 [I-474]
– | 2000 to 30000 | CN(CCNC(=O)c1cccc(O)c1)c1cc(-n2ccnc2)c2ccc(Cl)c(Cl)c2n1 [I-619]
– | < 2000 | O=C(O)C1CCCN(C(=O)C[C@@H]2CCCN2c2cc(-n3ccnc3)c3ccc(Cl)c(Cl)c3n2)C1 (some centres unmarked) [I-530]
< 2000 | – | C[C@H](CO)N(C)c1cc(-n2ccnc2)c2ccc(Cl)c(Cl)c2n1 [I-242]
< 2000 | – | O=C1CN(c2cc(-n3ccnc3)c3ccc(Cl)cc3n2)CCN1 [I-85]

IC50 [1] [nM] | IC50 [2] [nM] | Compound
> 30000 | – | Brc1ccc2c(-n3ccnc3)cc(-c3ccncc3)nc2c1 [I-383]
> 30000 | – | Cc1ccc2c(-c3cn[nH]c3)cc(NCCS(N)(=O)=O)nc2c1 [I-266]
> 30000 | – | O=C(O)c1cc2c(c(-c3cc(-n4ccnc4)c4ccc(Cl)cc4n3)c1)OCO2 [I-37]
< 2000 | – | CN(CCO)c1cc(-c2cn[nH]c2)c2ccc(Cl)c(Cl)c2n1 [I-240]
< 2000 | – | O=C1NC(=O)/C(=C\c2cc(-n3ccnc3)c3ccc(Cl)c(Cl)c3n2)S1 [I-276, (E)-5-((7,8-dichloro-4-(1H-imidazol-1-yl)quinolin-2-yl)methylene)thiazolidine-2,4-dione]
2000 to 30000 | – | COC(=O)c1cccc(-c2cc(-n3ccnc3)c3ccc(Cl)cc3n2)c1 [I-5]
< 2000 | – | O=C(O)c1cc(-c2cc(-n3ccnc3)c3ccc(Cl)c(Cl)c3n2)ccc1O [I-42, 5-(7,8-dichloro-4-(1H-imidazol-1-yl)quinolin-2-yl)-2-hydroxybenzoic acid]
< 2000 | – | C[C@@H](CO)N(C)c1cc(-n2ccnc2)c2ccc(Cl)c(Cl)c2n1 [I-241]
– | < 2000 | O=C(O)CCS(=O)(=O)N[C@@H]1C[C@@H](C(=O)O)N(c2cc(-n3ccnc3)c3ccc(Cl)c(Cl)c3n2)C1 [I-512]
> 30000 | – | CN(CCNS(=O)(=O)c1ccc(C(F)(F)F)cc1)c1cc(-n2ccnc2)c2ccc(Cl)cc2n1 [I-394]
> 30000 | – | O=S(=O)(O)CC(Cc1ccccc1)Nc1cc(-n2ccnc2)c2ccc(Cl)c(Cl)c2n1 (centres unmarked) [I-162, 2-((7,8-dichloro-4-(1H-imidazol-1-yl)quinolin-2-yl)amino)-3-phenylpropane-1-sulfonic acid]
< 2000 | – | CN1CCN(c2cc(-n3ccnc3)c3ccc(Cl)c(Cl)c3n2)CC1C(=O)O (centres unmarked) [I-82, 4-(7,8-Dichloro-4-(1H-imidazol-1-yl)quinolin-2-yl)-1-methylpiperazine-2-carboxylic acid]
> 30000 | – | Cc1cc(NCCS(N)(=O)=O)c2ccc(Cl)c(Cl)c2n1 [I-308]
– | 2000 to 30000 | COC(=O)[C@@H]1c2ccccc2CN1c1cc(-n2ccnc2)c2ccc(Cl)c(Cl)c2n1 [I-660]
> 30000 | – | COc1ccccc1-c1cc(-n2ccnc2)c2ccc(Br)cc2n1 [I-381]
2000 to 30000 | – | O=C(O)c1cccc(COc2cc(-n3ccnc3)c3ccc(Cl)cc3n2)c1 [I-281]
2000 to 30000 | – | O=C(O)CN(CCN1CCOCC1)c1cc(-n2ccnc2)c2ccc(Cl)c(Cl)c2n1 [I-172, N-(7,8-dichloro-4-(1H-imidazol-1-yl)quinoline-2-yl)-N-(2-morpholinoethyl)glycine]
< 2000 | – | CN(CCC(=O)N1CCCC(O)C1)c1cc(-c2cn[nH]c2)c2ccc(Cl)c(Cl)c2n1 (centres unmarked) [I-198]
– | < 2000 | CN(CCS(=O)(=O)NCCCO)c1cc(-n2ccnc2)c2ccc(Cl)c(Cl)c2n1 [I-632]
> 30000 | – | Cc1cc(NCCO)c2ccc(Cl)c(Cl)c2n1 [I-304]
< 2000 | – | CNS(=O)(=O)CCNc1cc(-n2ccnc2)c2ccc(Cl)c(Cl)c2n1 [I-201]
– | 2000 to 30000 | O=C(O)C1(c2ccccc2)CCCN1c1cc(-n2ccnc2)c2ccc(Cl)c(Cl)c2n1 (centres unmarked) [I-457]
2000 to 30000 | – | NC(=O)Nc1cccc(-c2cc(-n3ccnc3)c3ccc(Cl)cc3n2)c1 [I-11, 1-(3-(7-chloro-4-(1H-imidazol-1-yl)quinolin-2-yl)phenyl)urea]
– | 2000 to 30000 | COC(=O)[C@@H]1C[C@@H](N)CN1c1cc(-n2ccnc2)c2ccc(Cl)c(Cl)c2n1 [I-589]

IC50 [1] [nM] | IC50 [2] [nM] | Compound
– | < 2000 | O=C(O)c1ccc(S(=O)(=O)N[C@@H]2C[C@@H](C(=O)O)N(c3cc(-n4ccnc4)c4ccc(Cl)c(Cl)c4n3)C2)cc1 [I-511]
– | 2000 to 30000 | O=C(O)C1CCCCN1C(=O)[C@@H]1CCCN1c1cc(-n2ccnc2)c2ccc(Cl)c(Cl)c2n1 (some centres unmarked) [I-547]
– | < 2000 | O=C(O)COC[C@@H]1[C@@H](O)CCN1c1cc(-n2ccnc2)c2ccc(Cl)c(Cl)c2n1 [I-697]
< 2000 | – | O=C(O)[C@@H]1COCCN1c1cc(-c2cn[nH]c2)c2ccc(Cl)c(Cl)c2n1 [I-93]
2000 to 30000 | – | O=C(O)CN(CCCO)c1cc(-n2ccnc2)c2ccc(Cl)c(Cl)c2n1 [I-173]
2000 to 30000 | – | CN(CCC(=O)N1CCCC(CO)C1)c1cc(-c2cn[nH]c2)c2ccc(Cl)c(Cl)c2n1 (centres unmarked) [I-199]
2000 to 30000 | – | O=C(O)c1cc(-c2cc(-n3ccnc3)c3ccc(Cl)cc3n2)ccc1F [I-17]
2000 to 30000 | – | O=C(O)[C@H]1CCN1c1cc(-c2cn[nH]c2)c2ccc(Cl)c(Cl)c2n1 [I-359]
> 30000 | – | Cc1cccc2nc(NCCS(N)(=O)=O)cc(-c3cn[nH]c3)c12 [I-267]
– | < 2000 | CN(CCC(=O)O)C(=O)CCN(C)c1cc(-n2ccnc2)c2ccc(Cl)c(Cl)c2n1 [I-564]
< 2000 | – | CN(CCC(=O)NCC(=O)O)c1cc(-c2cn[nH]c2)c2ccc(Cl)c(Cl)c2n1 [I-196]
> 30000 | – | CCOc1cc(-n2ccnc2)c2ccc(Cl)cc2n1 [I-280]
2000 to 30000 | – | NS(=O)(=O)CC1CCCCN1c1cc(-n2ccnc2)c2ccc(Cl)c(Cl)c2n1 (centres unmarked) [I-368]
– | < 2000 | CN(CCN(CCC(=O)O)S(C)(=O)=O)c1cc(-n2ccnc2)c2ccc(Cl)c(Cl)c2n1 [I-634, 3-(N-(2-((7,8-dichloro-4-(1H-imidazol-1-yl)quinolin-2-yl)(methyl)amino)ethyl)methylsulfonamido) propanoic acid]
< 2000 | – | CN(CCC(=O)O)C(=O)C[C@@H]1CCCN1c1cc(-n2ccnc2)c2ccc(Cl)c(Cl)c2n1 [I-340]
< 2000 | – | CN(CCC(=O)O)c1cc(-c2cn[nH]c2)c2ccc(Cl)c(Cl)c2n1 [I-184]
< 2000 | – | O[C@H]1CCN(c2cc(-n3ccnc3)c3ccc(Cl)c(Cl)c3n2)C1 [I-144]
2000 to 30000 | – | OC[C@@H](Nc1cc(-n2ccnc2)c2ccc(Cl)c(Cl)c2n1)c1ccccc1 [I-246]
< 2000 | – | O=S(=O)(NC1CCCN(c2cc(-n3ccnc3)c3ccc(Cl)cc3n2)C1)C1CC1 (centres unmarked) [I-100]
– | < 2000 | O=C1CC2CCC(C1)N2c1cc(-n2ccnc2)c2ccc(Cl)c(Cl)c2n1 [I-488]
– | 2000 to 30000 | CN(CCNS(=O)(=O)c1cccc(C(=O)O)c1)c1cc(-n2ccnc2)c2ccc(Cl)c(Cl)c2n1 [I-623]
< 2000 | – | Clc1cc2nc(-c3ccccc3)cc(-n3ccnc3)c2cc1Cl [I-50]
– | < 2000 | O=C(O)C1CCN(C(=O)C[C@@H]2CCCN2c2cc(-n3ccnc3)c3ccc(Cl)c(Cl)c3n2)CC1 [I-529]
